Data set [1] can be described thus: Lipid solubility in oil.
Protocol: The suspended were vortexed and centrifuged at 3000 RPM, 10 mins periodically. Oil solvent volume was stepwise increased till completely soluble was observed and the soluble concentration were determined (Table1). The solutions were left at 24° C. overnight and were centrifuged at 5000 RPM for 20 mins. […] The suspensions were vigorously vortex and left at room temperature.
The subject of data set [2] is MCF-7 cells. In words: Cell cycle analysis. The data set is classed as cell-based, human.
Data set [3] relates to MCF-7 cells. Briefly: Induction of MCF-7 cell apoptosis. The class given is cell-based, human.
For data set [4], the system named is MCF-7 cells. Briefly: MTT (WST-1) assay for cytotoxicity effect of compound A on tumor cells. The following applies: 24 hours treatment. (Tetrazolium dyes change colour on reduction, which living cells bring about.)
Protocol: The human breast cancer cell line, MCF-7, was obtained from American Type Cell Collection (ATCC) (Rockville, Mo., U.S.A.). The cells were cultured to 70-80% confluence in Dulbecco's modified Eagle medium (DMEM) (Gibco, Grand Island, N.Y., U.S.A.) with 10% fetal bovine serum (FBS) (Gibco) at 37° C. and 5% CO2. MCF-7 cells were plated overnight in a 96-well plate (4,000 cells per well). […] Next, 10 μl/well of WST-1/ECS solution from the Quick Cell Proliferation Colorimetric Assay Kit (BioVision, Inc., Milptas, Calif., U.S.A.) was added, and the solution was incubated for 2 hours at 37° C. and 5% CO2. […] The half maximal inhibitory concentrations (IC50s) were calculated from linear regression from the absorbance optical density (OD) of each triplicate concentration.
Data set [5] deals with MCF-7 cells. Briefly: Cytosolic oxidative stress. The data set is classed as cell-based, human.
The subject of data set [6] is MCF-7 cells. Briefly: Fluorescent microscopy of subcellular distribution. The data set is classed as cell-based, human. The conditions noted are these: 120 μg/ml, observed at 60, 120 and 360 minutes. As to the method:
Low numbers of MCF-7 cells were seeded into 8-well plate (3,000 cells/well) overnight.

For the compound `COc1cccc2c1C(=O)c1c(O)c3c(c(O)c1C2=O)C[C@@](O)(C(=O)CO)C[C@@H]3O[C@H]1C[C@H](N)[C@H](O)[C@H](C)O1` [Doxorubicin], the “Solubility in Oil (40° C.)” value in data set [1] (Canola Oil), in data set [1] (Ethiodized Oil) and in data set [1] (Olive Oil) was “less than 0.0001 mg/100 ml” in each case.
Turning to “((3bS)-7-hydroxy-11a-methyl-1H,2H,3H,3aH,3bH,4H,5H,9bH,10H,11H,11aH-cyclopenta[a]phenanthren-1-yl N-[(2S,3S,6R)-3-hydroxy-2-methyl-6-{[(1S,3S)-3,5,12-trihydroxy-3-(2-hydroxyacetyl)-10-methoxy-6,11-dioxo-1,2,3,4,6,11-hexahydrotetracen-1-yl]oxy}oxan-4-yl]carbamate) [Compound A]”, the “interference with the cell cycle” value in data set [2] is given as “did not interfere with the cell cycle”. Also, the “induction of MCF-7 cell apoptosis” value in data set [3] is “rapidly induced MCF-7 cell apoptosis”. For the same compound, in data set [4], the IC60 is approximately 120 µg/mL. Moreover, the cytosolic oxidative stress result in data set [5] is recorded as “increased cytosolic oxidative stress”. Further, in data set [6], the “entry into the nucleus (subcellular distribution)” value is reported as “without entering the nucleus”.

For the origin of these results see patent US10576092B1, “Doxorubicin derivatives and uses thereof” (S.S.Manufacturing Co. Ltd, priority 2019, dated 2020).
